Tests used:
BT474 cells = conditions: 5 μM; see Wang 2006; cited from earlier work
ZR-75 cells = conditions: 5 μM; see Wang 2006; cited from earlier work
ERα = molecular target: T1, ERα (Homo sapiens, UniProt P03372); assay: (ERE)3-luciferase reporter gene assay in T47D-KBluc cells; type: cell-based; parameters: Using a stably transfected breast cancer cell line that expresses endogenous ERα; endogenous in cells; host or cells: T47D-KBluc
T1 sequence (P03372 1-595): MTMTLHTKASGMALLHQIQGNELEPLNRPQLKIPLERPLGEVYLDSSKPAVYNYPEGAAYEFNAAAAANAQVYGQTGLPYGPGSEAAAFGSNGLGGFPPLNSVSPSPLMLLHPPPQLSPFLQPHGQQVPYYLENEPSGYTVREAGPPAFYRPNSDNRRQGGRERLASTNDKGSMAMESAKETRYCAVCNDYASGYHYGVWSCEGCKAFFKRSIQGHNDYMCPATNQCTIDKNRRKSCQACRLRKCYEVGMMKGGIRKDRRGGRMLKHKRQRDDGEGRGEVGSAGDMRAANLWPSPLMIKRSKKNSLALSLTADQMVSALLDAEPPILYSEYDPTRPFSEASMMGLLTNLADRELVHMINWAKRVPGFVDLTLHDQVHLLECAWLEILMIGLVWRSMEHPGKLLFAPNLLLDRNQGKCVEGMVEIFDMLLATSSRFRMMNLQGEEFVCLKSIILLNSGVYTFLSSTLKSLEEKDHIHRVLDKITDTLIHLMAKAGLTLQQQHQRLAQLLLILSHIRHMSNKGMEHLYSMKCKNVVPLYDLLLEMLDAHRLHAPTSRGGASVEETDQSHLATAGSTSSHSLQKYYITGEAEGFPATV
Description: The T47D-KBluc cells stably express an (ERE)3-luciferase reporter gene (38). […] Four days before E2 induction, the cells were switched to the above medium, with 10% 2× charcoal-dextran-treated calf serum instead of FBS. 200,000 cells/well were transferred to each well of a 24-well plate. After 24 h the indicated concentrations of the test compounds were added in DMSO and E2 was added to 20 pM. After 24 h cells were washed once in PBS, and 150 μl 1× Passive Lysis Buffer (Promega, Madison Wis.) was used to lyse the cells. Luciferase activity was determined using firefly luciferase reagents from Promega (Madison, Wis.).
Reporter Gene Assays. […] AR was assayed in stably transfected HeLa cells and GR was assayed in stably transfected T47D cells maintained as described above. Four days before each experiment the cells were switched to medium containing CD-treated serum as described above. The HeLaAR cells were plated at 100,000 cells/well and the T47D/A1-2 and T47D-KBluc cells were plated at 200,000 cells/well in 1 ml of their respective media in 24-well plates. After 24 hours the indicated concentrations of E2, dihydrotestosterone (DHT) or dexamethasone (Dex) and DMSO vehicle, with or without TPSF, were added to each well. After 24 hours, the cells were washed once in phosphate buffered saline and lysed using 100 μl of 1× Passive Lysis Buffer (Promega, Madison Wis.). Luciferase activity was determined using BrightGlo firefly luciferase reagent from Promega (Madison, Wis.).

GR = molecular target: T2, GR (Rattus norvegicus, UniProt P06536); assay: GR transactivation, MMTV-luciferase reporter in T47D cells; type: cell-based, human
T2 construct: expressed in transfected cells; host or cells: T47D/A1-2
T2 sequence (P06536 1-795): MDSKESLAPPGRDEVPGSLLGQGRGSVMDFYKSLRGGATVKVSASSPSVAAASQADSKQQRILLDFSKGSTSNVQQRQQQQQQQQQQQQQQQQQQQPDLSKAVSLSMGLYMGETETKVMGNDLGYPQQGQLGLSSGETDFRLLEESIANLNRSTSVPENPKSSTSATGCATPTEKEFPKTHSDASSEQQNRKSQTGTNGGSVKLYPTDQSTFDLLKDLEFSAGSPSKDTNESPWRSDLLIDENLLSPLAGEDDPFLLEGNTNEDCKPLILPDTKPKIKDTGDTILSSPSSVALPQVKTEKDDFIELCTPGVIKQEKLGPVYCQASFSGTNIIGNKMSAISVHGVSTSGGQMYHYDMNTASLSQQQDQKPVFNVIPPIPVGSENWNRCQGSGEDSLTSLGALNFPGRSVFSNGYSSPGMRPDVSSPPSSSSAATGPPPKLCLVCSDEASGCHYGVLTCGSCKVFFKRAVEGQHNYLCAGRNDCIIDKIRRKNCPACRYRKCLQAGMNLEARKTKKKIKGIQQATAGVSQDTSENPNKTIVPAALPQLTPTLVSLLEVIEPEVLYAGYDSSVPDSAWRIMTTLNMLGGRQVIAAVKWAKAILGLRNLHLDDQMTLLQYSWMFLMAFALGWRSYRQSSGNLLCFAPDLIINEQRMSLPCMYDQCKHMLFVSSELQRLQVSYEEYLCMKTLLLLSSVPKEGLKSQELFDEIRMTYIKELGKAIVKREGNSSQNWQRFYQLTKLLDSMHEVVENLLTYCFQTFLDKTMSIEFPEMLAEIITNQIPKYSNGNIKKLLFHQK
Description: The T47D-KBluc cells stably express an (ERE)3-luciferase reporter gene (38). Cells were maintained in phenol red-free RPMI 1640 with 2 mM L-glutamine, 1.5 g/l sodium bicarbonate, 4.5 g/l glucose, 10 mM Hepes, pH 7.5, 1 mM sodium pyruvate, 10% FBS (Atlanta Biological, Atlanta, Ga.) and antibiotics. Four days before E2 induction, the cells were switched to the above medium, with 10% 2× charcoal-dextran-treated calf serum instead of FBS. 200,000 cells/well were transferred to each well of a 24-well plate. After 24 h the indicated concentrations of the test compounds were added in DMSO and E2 was added to 20 pM. After 24 h cells were washed once in PBS, and 150 μl 1× Passive Lysis Buffer (Promega, Madison Wis.) was used to lyse the cells. Luciferase activity was determined using firefly luciferase reagents from Promega (Madison, Wis.). T47D cells stably transfected to express GR and a mouse mammary tumor virus luciferase reporter that responds to liganded GR and PR were maintained and assayed in medium containing 5 nM progesterone for PR assays, or 2.5 nM dexamethsaone for GR assays, essentially as described (39).
Reporter Gene Assays. TPSF was identified by reporter gene assays comparing the ability of ˜200 compounds structurally related to TPBM (see reference 19) to inhibit transcription of a stably transfected (ERE)3-luciferase reporter gene in T47D-KBluc breast cancer cells (20). AR was assayed in stably transfected HeLa cells and GR was assayed in stably transfected T47D cells maintained as described above. Four days before each experiment the cells were switched to medium containing CD-treated serum as described above. The HeLaAR cells were plated at 100,000 cells/well and the T47D/A1-2 and T47D-KBluc cells were plated at 200,000 cells/well in 1 ml of their respective media in 24-well plates. After 24 hours the indicated concentrations of E2, dihydrotestosterone (DHT) or dexamethasone (Dex) and DMSO vehicle, with or without TPSF, were added to each well. After 24 hours, the cells were washed once in phosphate buffered saline and lysed using 100 μl of 1× Passive Lysis Buffer (Promega, Madison Wis.). Luciferase activity was determined using BrightGlo firefly luciferase reagent from Promega (Madison, Wis.).

ER negative HeLa cells = conditions: 10-20 μM; cited from earlier work
[1] = tested on: ERα negative MDA-MB-231 cells; assay: MDA-MB-231 cell growth / toxicity assay (MTS); type: cell-based, human
Description: ERα negative MDA-MB-231 human breast cancer cells were used to test for generalized toxicity of the test compounds. To parallel the reporter gene assays in stably transfected T47D breast cancer cells, 5,000 MDA-MB-231 cells per well were plated in a 96 well plate. The cells were maintained in the medium described above for the T47D cells. One day after plating, the same concentration of test compound used in the reporter gene assay (up to 30 μM) was added. After 24 h the MTS assay was carried out as described above. A more stringent toxicity assay parallels the assay for inhibition of estrogen-dependent growth of BG-1 cells. 250 MDA-MB-231 cells were plated per well and maintained and assayed as described for the BG-1 cells. Several compounds without detectable toxicity in the 24-h assay inhibited MDA-MB-231 cell growth in the 5-6 day assay.
Assays for Cell Growth and Viability. Cells were maintained in the media listed above containing CD-treated serum for at least 4 days prior to the experiment. To minimize cell aggregation, MCF-7 cells were harvested in 10 mM Hepes, pH 7.4, 1 mM EDTA. Other cell lines were harvested in trypsin-EDTA. 1,000 cells were plated into each well of a 96 well plate. For slow growing ZR-75 cells, 2,000 cells were plated/well. The cells were maintained in medium containing CD-treated serum for 24 hours. At 24 hours the medium was changed and E2 and DMSO vehicle or TPSF in DMSO was added. The medium was replaced after 2 days (except for BT474 cells whose medium was not changed). After 4 days viable cells were determined using a cell viability test, Promega CellTiter 96 Aqueous One Solution Cell Proliferation Assay (MTS) (Promega, Wis.).

[2] = Short-term mouse toxicity study; type: in vivo; conditions: up to 400 mg/kg

Question: What does the source list for disulfide benzamide [DIBA]?
Answer: effect on growth of tamoxifen-resistant BT474 cells (BT474 cells): did not inhibit; inhibition of growth of ZR-75 cells (ZR-75 cells): ~20%

Question: What does the source list for `Cn1c(=S)c2[nH]c(SCCCc3ccccc3)nc2n(C)c1=O` [Compound 99676]?
Answer: potency as ERα inhibitor relative to TPSF (less potent) (ERα): ~13 fold; IC50 (ERα; T47D (ERE)3-Luc cells, 24 h, FIG. 13, E2 concentration for 99676 not stated, read-out: IC50 for inhibition of ERα-mediated gene expression): 9 µM

Question: With `Cn1c(=O)c2[nH]c(Cc3ccc4ccccc4c3)nc2n(C)c1=O` [Compound 14147] as the compound, how does the “effect on GR” value (GR) read?
Answer: virtually no effect

Question: For `O=C(c1ccc(OCCN2CCCCC2)cc1)c1c(-c2ccc(O)cc2)sc2cc(O)ccc12` [raloxifene], which “effect in ER negative HeLa cells” value (ER negative HeLa cells) is on record?
Answer: induce caspase-dependent apoptosis

Question: With “4-hydroxytamoxifen [OHT, reference compound]” as the compound, how does the “effect on MDA-MB-231 cells” value ([1]; 10 μM) read?
Answer: killed many

Question: What about the “effect on MDA-MB-231 cells” value ([1]; 20 μM) of the same compound?
Answer: all the cells were killed

Question: And the “effect in ER negative HeLa cells” value (ER negative HeLa cells)?
Answer: induce caspase-dependent apoptosis

Question: With `CCCCCCCc1nc2c([nH]1)c(=O)n(C)c(=O)n2C` [Compound 101794] as the compound, how does the “toxicity in a short-term mouse study” value [2] read?
Answer: no toxicity

— US8871751B2, “Compositions and methods relating to nuclear hormone and steroid hormone receptors including inhibitors of estrogen receptor alpha-mediated gene expression and inhibition of breast cancer” (The Board of Trustees of the University of Illinois, priority 2008, dated 2014)
